ChEMBL document CHEMBL3045629, “Synthesis and Herbicidal Activity of Hydantocidin Analogues: Modification of the Carbonyl Groups in Spirohydantoin” (1995)

How the values were obtained:
Type in all cases: functional
[1] = system: Abutilon theophrasti; assay: Herbicidal activity against three-leaf stage Abutilon theophrasti (velvetleaf) exposed to foliar compound spraying at 1000 ppm measured 10 days after compound treatment
[2] = system: Sorghum halepense; assay: Herbicidal activity against three-leaf stage Sorghum halepense (Johnson grass) exposed to foliar compound spraying at 1000 ppm measured 10 days after compound treatment
[3] = system: Setaria viridis; assay: Herbicidal activity against three-leaf stage Setaria viridis (green foxtail) exposed to foliar compound spraying at 1000 ppm measured 10 days after compound treatment
[4] = system: Solanum nigrum; assay: Herbicidal activity against three-leaf stage Solanum nigrum (black nightshade) exposed to foliar compound spraying at 1000 ppm measured 10 days after compound treatment
[5] = system: Xanthium strumarium; assay: Herbicidal activity against three-leaf stage Xanthium strumarium (cocklebur) exposed to foliar compound spraying at 1000 ppm measured 10 days after compound treatment
[6] = system: Digitaria sanguinalis; assay: Herbicidal activity against three-leaf stage Digitaria sanguinalis (hairy crabgrass) exposed to foliar compound spraying at 1000 ppm measured 10 days after compound treatment
[7] = system: Ipomoea purpurea; assay: Herbicidal activity against three-leaf stage Ipomoea purpurea (common morning-glory) exposed to foliar compound spraying at 1000 ppm measured 10 days after compound treatment
[8] = system: Panicum dichotomiflorum; assay: Herbicidal activity against three-leaf stage Panicum dichotomiflorum exposed to foliar compound spraying at 1000 ppm measured 10 days after compound treatment
[9] = system: Ambrosia artemisiifolia; assay: Herbicidal activity against three-leaf stage Ambrosia artemisiifolia (ragweed) exposed to foliar compound spraying at 1000 ppm measured 10 days after compound treatment
[10] = system: Echinochloa crus-galli; assay: Herbicidal activity against three-leaf stage Echinochloa crus-galli (barnyard grass) exposed to foliar compound spraying at 1000 ppm measured 10 days after compound treatment

Row | Structure (SMILES) | Activity [1] | Activity [2] | Activity [3] | Activity [4] | Activity [5] | Activity [6] | Activity [7] | Activity [8] | Activity [9] | Activity [10]
1 | O=C1NC[C@]2(N1)O[C@H](CO)[C@@H](O)[C@H]2O | 10% | 10% | 10% | 10% | 0% | 0% | 0% | 10% | 10% | 10%
2 | O=C1NC(=O)[C@]2(N1)O[C@H](CO)[C@@H](O)[C@H]2O [HYDANTOCIDIN] | 95% | 95% | 95% | 95% | 95% | 95% | 95% | 95% | 95% | 95%
3 | O=C1NC(NCc2ccccc2)=N[C@]12O[C@H](CO)[C@@H](O)[C@H]2O | 0% | 0% | 0% | 30% | 95% | 0% | 10% | 0% | 95% | 0%
